According to patent publication US20040208944A1, “Compositions and methods against inflammatory processes” (priority 2002, published 2004):

Legend:
[1] = target: COX-1 (Homo sapiens, UniProt P23219); test: Stressgen StressXpress cyclooxygenase activity kit, COX-1; type: biochemical; conditions: for COX-1 activity (RLU): vehicle 4115 RLU
Method: (§1) The Stressgen StressXpress™ cyclooxygenases activity Kit provides a method to measure specifically cyclooxygenases COX-1 and COX-2 in a variety of biological fluids. The kit uses a specific chemiluminescent substrate (aromatic hydrocarbon molecule) to detect the peroxidative activity of COX enzymes. […] Light emission begins immediately and chemiluminescent signal (Relative Luminescence Units—RLU—is measured after 30 minutes (luminometer Tecan). The amount of light emitted is directly proportional to the COX activity.

[2] = system: COX-2 expression in HT29 cells; test: Western blot of COX-2 expression in HT 29 cells; type: cell-based, human; conditions: FIG. 1
Method: Western blot analysis: cells lysate were prepared by treating HT 29 cells (treated as above for PGE-2 determinations, i.e. in presence or absence of TNF-alpha and with or without α-CH2-γ-butyrolactone) with lysis buffer (150 mM NaCl, 10 mM Tris HCl pH 8, 1% Tween 20, EDTA pH 8 1 mM, proteases inhibitors, PEFA, (Merck), DETC (Aldrich)). Lysates were sonicated for 5 s, and centrifugated at 10000 g for 5 min. Proteins concentration were estimated by the Bradford method which was standardized using bovine serum albumine.
Whole cell extracts (25 μg) were boiled in Laemmli sample buffer and resolved by SDS-PAGE on 10% gel using the discontinuous polyacrylamide gel system. Non specific binding sites were blocked by incubating the membrane in 5% dried milk phosphate buffered saline solution containing 0.1% of tween-20 overnight at 4° C. Blots were hybridized in a 1:1000 dilution of a goat polyclonal anti COX-2 and also COX-1 antibody (C-20, Santa Cruz Biotechnology) in 5% milk PBS for 1 h at room temperature followed by 1 h of washing in 1% milk PBS. Subsequently, blots were probed with a secondary donkey anti-goat antibody horseradish peroxidase conjugated. After washing for 1 h, the complex was detected using ECL Western blotting reagents (Amersham)

[3] = target: T1, COX-2 (Homo sapiens, UniProt P35354); test: Stressgen StressXpress cyclooxygenase activity kit, COX-2; type: biochemical
T1 sequence (P35354 18-604): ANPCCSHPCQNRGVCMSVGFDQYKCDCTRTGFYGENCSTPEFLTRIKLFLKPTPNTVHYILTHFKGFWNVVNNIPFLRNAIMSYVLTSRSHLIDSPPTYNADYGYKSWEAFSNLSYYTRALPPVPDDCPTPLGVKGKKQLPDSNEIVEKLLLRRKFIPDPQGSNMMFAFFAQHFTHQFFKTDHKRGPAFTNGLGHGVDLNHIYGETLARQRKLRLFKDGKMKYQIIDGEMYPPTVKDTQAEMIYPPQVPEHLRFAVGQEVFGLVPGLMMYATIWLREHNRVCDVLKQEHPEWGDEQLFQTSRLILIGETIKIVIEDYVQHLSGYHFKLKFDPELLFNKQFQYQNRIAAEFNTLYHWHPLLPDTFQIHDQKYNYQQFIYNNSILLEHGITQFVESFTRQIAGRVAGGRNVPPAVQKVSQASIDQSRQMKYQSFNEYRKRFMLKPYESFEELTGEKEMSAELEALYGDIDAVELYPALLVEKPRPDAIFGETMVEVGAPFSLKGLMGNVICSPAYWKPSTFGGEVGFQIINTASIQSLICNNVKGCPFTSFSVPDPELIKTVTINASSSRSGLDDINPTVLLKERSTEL
Method: as §1

[4] = system: HT 29 cells; test: PGE2 synthesis in HT29 cells treated with α-CH2-γ-butyrolactone with and without TNF-α; type: cell-based, human; conditions: for pg PGE2/ml of medium + TNF-α / PGE2 % of control − TNF-α / pg PGE2/ml of medium − TNF-α: 21 h; for pg PGE2/ml of medium + TNF-α / PGE2 % of control + TNF-α: TNF-α 10 ng/ml for 6 h; for PGE2 % of control − TNF-α / pg PGE2/ml of medium − TNF-α: without TNF-α; for PGE2 % of control + TNF-α: relative to methanol control without TNF-α (control + TNF-α = 730)
Method: To this end, cells were cultured and passed in Mc Coy's 5A medium supplemented with arachidonic acid ([…]) and bovine serum albumin (0.01%). Cells were treated by alpha-methylen-gamma-butyrolactone (dissolved in methanol) at the following doses: 15, 30, 60 microM or by solvent alone during 21 h including or not stimulation with TNF-alpha (10 ng/ml) for 6 h. PGE2 analysis was performed using an Elisa test on a medium sample.

COX-1, sequence (P23219 24-599): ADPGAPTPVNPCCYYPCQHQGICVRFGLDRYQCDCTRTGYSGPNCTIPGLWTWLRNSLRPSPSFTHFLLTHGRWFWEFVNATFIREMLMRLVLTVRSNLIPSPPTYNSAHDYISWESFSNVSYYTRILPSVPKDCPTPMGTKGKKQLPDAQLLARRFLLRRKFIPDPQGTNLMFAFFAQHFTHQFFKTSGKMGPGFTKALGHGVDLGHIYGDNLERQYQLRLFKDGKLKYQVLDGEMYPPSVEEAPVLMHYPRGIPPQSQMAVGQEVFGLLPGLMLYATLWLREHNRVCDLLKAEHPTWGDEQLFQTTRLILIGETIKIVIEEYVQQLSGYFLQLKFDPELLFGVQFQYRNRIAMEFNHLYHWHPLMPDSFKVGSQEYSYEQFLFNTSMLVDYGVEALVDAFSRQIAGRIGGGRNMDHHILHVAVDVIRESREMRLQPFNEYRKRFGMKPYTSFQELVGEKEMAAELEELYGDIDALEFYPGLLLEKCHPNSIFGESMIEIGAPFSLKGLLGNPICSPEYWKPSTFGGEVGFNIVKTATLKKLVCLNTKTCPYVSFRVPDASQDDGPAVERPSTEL

SMILES | COX-1 activity % of control ([1]; 1 mM) | COX-1 activity (RLU) ([1]; 1 mM) | COX-2 expression (Western blot, in words) [2] | COX-2 activity % of control ([3]; 40 μM) | COX-2 activity (RLU) ([3]; 40 μM, vehicle 26450 RLU) | inhibition of COX-2 activity (in words) ([3]; cyclooxygenase activity kit) | COX-1 activity % of control ([1]; 40 μM) | COX-1 activity (RLU) ([1]; 40 μM) | pg PGE2/ml of medium + TNF-α ([4]; 15 μM) [pg/mL] | PGE2 % of control − TNF-α ([4]; 15 μM) | pg PGE2/ml of medium − TNF-α ([4]; 15 μM) [pg/mL] | PGE2 % of control + TNF-α ([4]; 15 μM) | pg PGE2/ml of medium + TNF-α ([4]; 30 μM) [pg/mL] | PGE2 % of control − TNF-α ([4]; 30 μM) | pg PGE2/ml of medium − TNF-α ([4]; 30 μM) [pg/mL] | PGE2 % of control + TNF-α ([4]; 30 μM) | pg PGE2/ml of medium + TNF-α ([4]; 60 μM) [pg/mL] | PGE2 % of control − TNF-α ([4]; 60 μM) | pg PGE2/ml of medium − TNF-α ([4]; 60 μM) [pg/mL] | PGE2 % of control + TNF-α ([4]; 60 μM)
CS(=O)(=O)Nc1ccc([N+](=O)[O-])cc1OC1CCCCC1 [NS-398, reference compound] | 99 % of control | 4063 |  |  |  |  |  |  |  |  |  |  |  |  |  |  |  |  |  | 
C=C1CCOC1=O [α-CH2-γ-butyrolactone, α-methylene-γ-butyrolactone] |  |  | inhibition of COX-2 expression | 49 % of control | 12823 | inhibit specifically and with high potency COX-2 activity | 117 % of control | 4807 | 13286 | 108 % of control | 2814 | 512 % of control | 9349 | 76 % of control | 1970 | 360 % of control | 1310 | 14 % of control | 1144 | 50 % of control
